Measured values taken from ChEMBL document CHEMBL5653615 (J Biol Chem, 2013).

What was measured:
[1] = target: Receptor-type tyrosine-protein kinase FLT3 (Homo sapiens) (UniProt P36888); experiment: Inhibition of human FLT3 at 18.6 nM by HotSpot assay relative to control
[2] = target: T1, Inhibitor of nuclear factor kappa-B kinase subunit epsilon (Homo sapiens) (UniProt Q14164); experiment: Inhibition of human IKKe at 18.6 nM by HotSpot assay relative to control
T1 sequence (whole entry): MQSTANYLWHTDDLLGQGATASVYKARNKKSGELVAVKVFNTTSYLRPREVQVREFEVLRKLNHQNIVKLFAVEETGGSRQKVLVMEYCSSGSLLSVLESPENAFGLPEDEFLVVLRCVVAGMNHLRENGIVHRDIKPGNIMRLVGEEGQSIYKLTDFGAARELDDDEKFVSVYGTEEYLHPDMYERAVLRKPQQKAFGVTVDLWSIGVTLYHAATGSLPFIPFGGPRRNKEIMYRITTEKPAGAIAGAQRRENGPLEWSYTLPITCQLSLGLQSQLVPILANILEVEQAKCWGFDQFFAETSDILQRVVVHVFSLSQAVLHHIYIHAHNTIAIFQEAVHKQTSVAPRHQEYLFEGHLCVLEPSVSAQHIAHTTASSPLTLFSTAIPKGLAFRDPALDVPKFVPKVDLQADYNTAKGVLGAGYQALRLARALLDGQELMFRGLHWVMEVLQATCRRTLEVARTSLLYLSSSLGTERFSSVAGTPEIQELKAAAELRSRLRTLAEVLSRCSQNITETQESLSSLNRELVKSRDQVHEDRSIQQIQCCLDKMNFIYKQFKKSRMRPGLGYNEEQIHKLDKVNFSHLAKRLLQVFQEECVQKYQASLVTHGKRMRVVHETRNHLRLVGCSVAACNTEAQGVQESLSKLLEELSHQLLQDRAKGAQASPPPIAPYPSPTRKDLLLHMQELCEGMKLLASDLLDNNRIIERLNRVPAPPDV

[3] = target: T2, Serine/threonine-protein kinase 3 (Homo sapiens) (UniProt Q13188); experiment: Inhibition of human STK3 at 18.6 nM by HotSpot assay relative to control
T2 sequence (whole entry): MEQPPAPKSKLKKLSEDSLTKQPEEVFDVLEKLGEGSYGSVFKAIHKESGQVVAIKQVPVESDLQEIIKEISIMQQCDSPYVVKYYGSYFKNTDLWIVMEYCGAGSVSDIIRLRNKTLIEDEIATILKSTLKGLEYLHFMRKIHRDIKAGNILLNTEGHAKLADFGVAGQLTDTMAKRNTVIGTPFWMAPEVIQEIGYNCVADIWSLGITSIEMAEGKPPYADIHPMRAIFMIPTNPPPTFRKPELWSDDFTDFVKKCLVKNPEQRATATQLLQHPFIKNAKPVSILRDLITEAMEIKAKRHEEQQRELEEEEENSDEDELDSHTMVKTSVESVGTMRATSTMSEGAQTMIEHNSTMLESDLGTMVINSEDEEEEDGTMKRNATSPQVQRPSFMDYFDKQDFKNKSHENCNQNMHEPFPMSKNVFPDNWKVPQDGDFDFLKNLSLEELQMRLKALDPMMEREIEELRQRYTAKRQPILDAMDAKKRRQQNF

[4] = target: Serine/threonine-protein kinase pim-1 (Homo sapiens) (UniProt P11309); experiment: Inhibition of human PIM1 at 18.6 nM by HotSpot assay relative to control
[5] = target: Serine/threonine-protein kinase WNK2 (Homo sapiens) (UniProt Q9Y3S1); experiment: Inhibition of human WNK2 at 18.6 nM by HotSpot assay relative to control
[6] = target: Calcium/calmodulin-dependent protein kinase type 1G (Homo sapiens) (UniProt Q96NX5); experiment: Inhibition of human CAMK1g at 1.82 nM by HotSpot assay relative to control
[7] = target: Calcium/calmodulin-dependent protein kinase kinase 1 (Homo sapiens) (UniProt Q8N5S9); experiment: Inhibition of human CAMKK1 at 1.82 nM by HotSpot assay relative to control
[8] = target: CDK6/cyclin D1 (Homo sapiens) (UniProt P24385+Q00534); experiment: Inhibition of human CDK6/cyclin D1 at 1.82 nM by HotSpot assay relative to control; assay type: protein-complex assay
[9] = target: MAP kinase-interacting serine/threonine-protein kinase 2 (Homo sapiens) (UniProt Q9HBH9); experiment: Inhibition of human MNK2 at 1.82 nM by HotSpot assay relative to control
[10] = target: Serine/threonine-protein kinase PAK 4 (Homo sapiens) (UniProt O96013); experiment: Inhibition of human PAK4 at 1.82 nM by HotSpot assay relative to control
[11] = target: T3, Testis-specific serine/threonine-protein kinase 2 (Homo sapiens) (UniProt Q96PF2); experiment: Inhibition of human TSSK2 at 1.82 nM by HotSpot assay relative to control
T3 sequence (whole entry): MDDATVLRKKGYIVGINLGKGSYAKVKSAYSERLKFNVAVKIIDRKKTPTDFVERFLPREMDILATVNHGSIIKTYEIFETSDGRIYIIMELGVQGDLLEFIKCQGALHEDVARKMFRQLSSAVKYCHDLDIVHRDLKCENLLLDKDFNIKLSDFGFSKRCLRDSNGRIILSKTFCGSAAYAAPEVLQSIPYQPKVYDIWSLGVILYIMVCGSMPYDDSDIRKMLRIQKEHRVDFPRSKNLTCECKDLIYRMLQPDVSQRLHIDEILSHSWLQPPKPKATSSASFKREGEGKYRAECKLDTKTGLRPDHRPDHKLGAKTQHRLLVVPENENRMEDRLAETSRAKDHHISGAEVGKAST

Chain of Serine/threonine-protein kinase WNK2 (Homo sapiens) (Q9Y3S1 whole entry): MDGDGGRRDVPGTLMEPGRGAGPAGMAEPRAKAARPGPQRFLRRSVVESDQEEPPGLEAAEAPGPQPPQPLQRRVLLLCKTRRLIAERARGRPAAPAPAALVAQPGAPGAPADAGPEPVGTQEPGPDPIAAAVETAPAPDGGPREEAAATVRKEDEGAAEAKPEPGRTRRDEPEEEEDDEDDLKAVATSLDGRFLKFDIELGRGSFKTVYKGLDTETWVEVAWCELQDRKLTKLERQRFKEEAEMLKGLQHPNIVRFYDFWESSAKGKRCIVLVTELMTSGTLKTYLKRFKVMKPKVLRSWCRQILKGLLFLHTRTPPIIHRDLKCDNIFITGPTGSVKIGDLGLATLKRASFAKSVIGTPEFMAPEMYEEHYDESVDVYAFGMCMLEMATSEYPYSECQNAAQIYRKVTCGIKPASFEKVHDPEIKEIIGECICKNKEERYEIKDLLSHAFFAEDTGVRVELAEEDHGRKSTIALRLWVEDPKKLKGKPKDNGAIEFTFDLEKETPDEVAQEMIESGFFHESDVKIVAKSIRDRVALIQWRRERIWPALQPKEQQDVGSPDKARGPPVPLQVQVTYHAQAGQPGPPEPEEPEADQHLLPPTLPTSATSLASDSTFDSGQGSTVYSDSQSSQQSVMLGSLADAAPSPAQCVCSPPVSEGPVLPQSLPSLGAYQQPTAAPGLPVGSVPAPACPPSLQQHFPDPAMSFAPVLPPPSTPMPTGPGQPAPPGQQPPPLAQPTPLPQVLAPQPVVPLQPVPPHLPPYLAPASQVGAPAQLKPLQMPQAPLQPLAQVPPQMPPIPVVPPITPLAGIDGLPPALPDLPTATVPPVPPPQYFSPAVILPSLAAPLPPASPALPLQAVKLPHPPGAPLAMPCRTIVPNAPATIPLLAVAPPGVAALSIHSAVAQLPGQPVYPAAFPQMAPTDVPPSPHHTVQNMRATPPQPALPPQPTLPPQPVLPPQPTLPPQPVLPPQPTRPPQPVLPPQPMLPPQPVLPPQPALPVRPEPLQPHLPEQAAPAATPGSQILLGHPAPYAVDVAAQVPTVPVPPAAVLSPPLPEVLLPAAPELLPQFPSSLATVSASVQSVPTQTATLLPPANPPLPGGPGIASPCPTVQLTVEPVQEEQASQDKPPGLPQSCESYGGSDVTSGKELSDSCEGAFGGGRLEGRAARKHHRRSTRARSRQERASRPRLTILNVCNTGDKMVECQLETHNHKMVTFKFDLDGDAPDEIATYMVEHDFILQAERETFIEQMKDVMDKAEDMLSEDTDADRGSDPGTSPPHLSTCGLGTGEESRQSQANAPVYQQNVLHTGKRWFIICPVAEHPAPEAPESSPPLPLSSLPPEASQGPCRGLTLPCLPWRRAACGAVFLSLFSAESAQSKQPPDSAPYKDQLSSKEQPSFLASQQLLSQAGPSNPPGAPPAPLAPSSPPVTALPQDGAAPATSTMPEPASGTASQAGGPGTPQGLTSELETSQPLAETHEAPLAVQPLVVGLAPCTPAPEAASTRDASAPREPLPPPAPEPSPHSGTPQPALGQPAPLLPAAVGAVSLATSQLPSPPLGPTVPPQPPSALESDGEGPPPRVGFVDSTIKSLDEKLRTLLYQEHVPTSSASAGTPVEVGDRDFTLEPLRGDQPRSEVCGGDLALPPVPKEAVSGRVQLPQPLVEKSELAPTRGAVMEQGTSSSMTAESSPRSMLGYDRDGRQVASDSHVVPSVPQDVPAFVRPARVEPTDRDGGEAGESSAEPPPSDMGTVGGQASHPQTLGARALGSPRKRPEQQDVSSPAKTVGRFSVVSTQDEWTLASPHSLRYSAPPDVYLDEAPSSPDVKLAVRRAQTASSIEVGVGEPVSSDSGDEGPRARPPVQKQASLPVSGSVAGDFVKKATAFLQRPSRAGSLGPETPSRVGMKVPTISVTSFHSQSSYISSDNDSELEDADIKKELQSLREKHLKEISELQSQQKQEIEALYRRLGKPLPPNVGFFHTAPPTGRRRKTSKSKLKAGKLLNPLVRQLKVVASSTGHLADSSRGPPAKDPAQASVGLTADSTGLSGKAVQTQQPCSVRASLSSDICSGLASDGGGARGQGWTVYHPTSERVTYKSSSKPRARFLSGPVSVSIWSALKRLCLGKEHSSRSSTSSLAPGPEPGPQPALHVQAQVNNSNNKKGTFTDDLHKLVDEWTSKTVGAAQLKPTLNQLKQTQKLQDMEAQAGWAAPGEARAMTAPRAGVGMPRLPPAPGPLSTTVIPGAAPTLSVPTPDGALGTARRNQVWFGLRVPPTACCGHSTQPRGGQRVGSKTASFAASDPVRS
Chain of Calcium/calmodulin-dependent protein kinase type 1G (Homo sapiens) (Q96NX5 whole entry): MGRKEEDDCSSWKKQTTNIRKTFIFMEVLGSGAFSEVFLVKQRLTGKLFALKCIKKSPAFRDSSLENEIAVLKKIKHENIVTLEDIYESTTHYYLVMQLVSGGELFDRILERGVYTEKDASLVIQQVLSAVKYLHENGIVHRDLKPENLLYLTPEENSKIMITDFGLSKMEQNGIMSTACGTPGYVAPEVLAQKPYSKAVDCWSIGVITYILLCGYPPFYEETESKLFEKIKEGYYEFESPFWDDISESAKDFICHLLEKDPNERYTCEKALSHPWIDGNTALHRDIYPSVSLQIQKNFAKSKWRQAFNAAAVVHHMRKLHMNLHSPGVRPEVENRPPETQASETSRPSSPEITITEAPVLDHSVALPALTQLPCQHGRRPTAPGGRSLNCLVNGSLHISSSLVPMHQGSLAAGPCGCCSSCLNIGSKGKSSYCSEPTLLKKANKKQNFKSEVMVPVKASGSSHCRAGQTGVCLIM
Chain of Calcium/calmodulin-dependent protein kinase kinase 1 (Homo sapiens) (Q8N5S9 whole entry, looked up): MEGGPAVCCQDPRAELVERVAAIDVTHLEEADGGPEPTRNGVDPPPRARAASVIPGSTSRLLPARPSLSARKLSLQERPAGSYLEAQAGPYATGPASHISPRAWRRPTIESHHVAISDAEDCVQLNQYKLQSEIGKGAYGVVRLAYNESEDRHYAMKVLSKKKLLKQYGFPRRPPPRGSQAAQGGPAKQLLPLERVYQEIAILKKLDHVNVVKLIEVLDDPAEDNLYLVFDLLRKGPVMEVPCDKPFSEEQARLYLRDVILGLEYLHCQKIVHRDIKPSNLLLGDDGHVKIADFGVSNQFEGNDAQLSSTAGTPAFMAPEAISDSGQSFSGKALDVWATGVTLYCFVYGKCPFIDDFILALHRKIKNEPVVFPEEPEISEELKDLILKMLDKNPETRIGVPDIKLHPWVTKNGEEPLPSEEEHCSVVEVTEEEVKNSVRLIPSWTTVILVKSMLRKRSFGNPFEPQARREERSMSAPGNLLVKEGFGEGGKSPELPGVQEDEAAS
Chain of Serine/threonine-protein kinase pim-1 (Homo sapiens) (P11309 whole entry, looked up): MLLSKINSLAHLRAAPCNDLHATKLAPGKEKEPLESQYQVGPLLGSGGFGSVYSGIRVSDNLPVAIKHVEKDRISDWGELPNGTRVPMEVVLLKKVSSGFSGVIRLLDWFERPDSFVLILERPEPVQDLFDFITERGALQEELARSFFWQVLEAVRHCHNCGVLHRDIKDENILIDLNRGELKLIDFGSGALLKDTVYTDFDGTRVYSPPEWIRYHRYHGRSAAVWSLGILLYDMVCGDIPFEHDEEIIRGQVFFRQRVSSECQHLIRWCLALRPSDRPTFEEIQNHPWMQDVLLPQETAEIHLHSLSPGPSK
Chain of Receptor-type tyrosine-protein kinase FLT3 (Homo sapiens) (P36888 whole entry): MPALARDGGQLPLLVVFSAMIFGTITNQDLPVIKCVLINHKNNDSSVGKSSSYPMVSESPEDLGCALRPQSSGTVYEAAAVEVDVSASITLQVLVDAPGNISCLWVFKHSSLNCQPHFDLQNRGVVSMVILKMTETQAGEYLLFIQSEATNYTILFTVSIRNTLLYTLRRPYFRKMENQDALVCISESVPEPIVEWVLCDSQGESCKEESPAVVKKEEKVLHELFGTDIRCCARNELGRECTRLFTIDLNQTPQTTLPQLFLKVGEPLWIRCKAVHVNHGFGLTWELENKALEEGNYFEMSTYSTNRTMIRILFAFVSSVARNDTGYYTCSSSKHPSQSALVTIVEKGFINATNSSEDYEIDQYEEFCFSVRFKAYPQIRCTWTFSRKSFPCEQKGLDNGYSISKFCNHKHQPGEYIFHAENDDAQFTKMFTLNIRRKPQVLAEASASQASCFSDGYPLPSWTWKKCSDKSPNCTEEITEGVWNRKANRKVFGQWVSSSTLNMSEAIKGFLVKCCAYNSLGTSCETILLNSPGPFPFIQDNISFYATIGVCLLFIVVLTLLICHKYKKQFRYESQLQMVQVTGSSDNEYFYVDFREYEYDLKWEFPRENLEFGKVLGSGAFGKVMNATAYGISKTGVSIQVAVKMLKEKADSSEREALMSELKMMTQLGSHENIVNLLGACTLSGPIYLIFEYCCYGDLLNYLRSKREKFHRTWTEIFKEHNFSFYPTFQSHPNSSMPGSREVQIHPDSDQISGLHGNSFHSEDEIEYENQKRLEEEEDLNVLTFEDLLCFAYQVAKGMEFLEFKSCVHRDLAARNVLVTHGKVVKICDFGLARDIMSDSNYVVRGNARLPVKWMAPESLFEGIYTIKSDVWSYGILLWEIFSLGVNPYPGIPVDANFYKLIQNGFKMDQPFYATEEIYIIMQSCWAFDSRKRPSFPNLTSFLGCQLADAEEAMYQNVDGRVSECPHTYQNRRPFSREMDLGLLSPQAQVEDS
Chain of MAP kinase-interacting serine/threonine-protein kinase 2 (Homo sapiens) (Q9HBH9 whole entry, looked up): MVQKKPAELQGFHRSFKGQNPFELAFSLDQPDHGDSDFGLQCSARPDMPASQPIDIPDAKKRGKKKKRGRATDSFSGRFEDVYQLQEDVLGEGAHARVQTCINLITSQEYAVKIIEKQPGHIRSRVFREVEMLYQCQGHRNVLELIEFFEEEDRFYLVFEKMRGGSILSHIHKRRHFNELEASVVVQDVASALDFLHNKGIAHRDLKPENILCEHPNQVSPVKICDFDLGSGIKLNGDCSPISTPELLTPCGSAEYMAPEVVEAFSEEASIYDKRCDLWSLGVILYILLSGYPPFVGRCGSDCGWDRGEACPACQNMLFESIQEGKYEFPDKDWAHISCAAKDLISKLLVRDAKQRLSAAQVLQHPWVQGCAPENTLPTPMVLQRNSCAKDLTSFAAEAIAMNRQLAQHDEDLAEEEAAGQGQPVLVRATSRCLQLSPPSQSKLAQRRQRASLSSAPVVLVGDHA

inhibition [1] [%] | inhibition [2] [%] | inhibition [3] [%] | inhibition [4] [%] | inhibition [5] [%] | inhibition [6] [%] | inhibition [7] [%] | inhibition [8] [%] | inhibition [9] [%] | inhibition [10] [%] | inhibition [11] [%] | Compound
-4.3 | 3.19 | -2.45 | -3.58 | -2.52 |  |  |  |  |  |  | C[C@]1(O)C[C@@H](c2nc(-c3ccc4ccc(-c5ccccc5)nc4c3)c3c(N)nccn32)C1
 |  |  |  |  | 7.27 | -5.91 | -1.74 | -4.8 | -3.15 | -1.46 | C[C@@]1(C(=O)Nc2ccc(F)nc2)CCCN1c1nc(Nc2cc(C3CC3)n[nH]2)c2cccn2n1
